Results on 14 compounds are retold here after patent publication US7271170B2, “Imidazo-pyrimidines and triazolo-pyrimidines: benzodiazepine receptor ligands” (Neurogen Corporation, priority 2003, dated 2007).

One test deals with benzodiazepine site of the GABAA receptor. Description: Ligand binding assay of Example 6 (3H-Ro15-1788 competition, purified rat cortical membranes). The note with it: ligand binding assay of Example 6; Table 5 Ki.
In the case of `CCCc1c(Cn2ccnc2-c2ncccc2F)ncn2nc(COCC)nc12` [Compound 261, 2-(ethoxymethyl)-7-{[2-(3-fluoropyridin-2-yl)-1H-imidazol-1-yl]methyl}-8-propyl[1,2,4]triazolo[1,5-c]pyrimidine], the Ki is below 1000 nM. Compound `CCCc1c(Cn2ccnc2-c2ncccc2F)ncn2nc(Cl)nc12` [Compound 256, 2-chloro-7-{[2-(3-fluoropyridin-2-yl)-1H-imidazol-1-yl]methyl}-8-propyl[1,2,4]triazolo[1,5-c]pyrimidine] yielded a Ki below 1000 nM. `CCCc1c(Cn2ccnc2-c2ncccc2F)ncn2nc(C(=O)OC)nc12` [Compound 251, methyl 7-{[2-(3-fluoropyridin-2-yl)-1H-imidazol-1-yl]methyl}-8-propyl[1,2,4]triazolo[1,5-c]pyrimidine-2-carboxylate] displayed a Ki below 1000 nM.

On to `Cc1nc2c(CCCCl)c(Cn3ccnc3-c3ncccc3F)ncn2n1` [Compound 230, 8-(3-Chloro-propyl)-7-[2-(3-fluoro-pyridin-2-yl)-imidazol-1-ylmethyl]-2-methyl-[1,2,4]triazolo[1,5-c]pyrimidine], for which the Ki was below 1000 nM. Same read-out and setting: in the case of `CCCc1c(Cn2ccnc2-c2cccc(F)n2)ncn2nc(C(C)(C)O)nc12` [Compound 252, 2-(7-{[2-(6-fluoropyridin-2-yl)-1H-imidazol-1-yl]methyl}-8-propyl[1,2,4]triazolo[1,5-c]pyrimidin-2-yl)propan-2-ol] it was below 1000 nM; in that of `Cc1nc2c(CCCOCc3ccccc3)c(Cn3ccnc3-c3ncccc3F)ncn2n1` [Compound 226, 8-(3-Benzyloxy-propyl)-7-[2-(3-fluoro-pyridin-2-yl)-imidazol-1-ylmethyl]-2-methyl[1,2,4]triazolo[1,5-c]pyrimidine], below 1000 nM; in that of `CCCc1c(Cn2ccnc2-c2ncccc2F)ncn2nc(COCC(F)(F)F)nc12` [Compound 255, 7-{[2-(3-fluoropyridin-2-yl)-1H-imidazol-1-yl]methyl}-8-propyl-2-[(2,2,2-trifluoroethoxy)methyl][1,2,4]triazolo[1,5-c]pyrimidine], below 1000 nM. Regarding `CCCc1c(Cn2ccnc2-c2ncccc2F)ncn2nc(C(N)=O)nc12` [Compound 239, 7-[2-(3-Fluoro-pyridin-2-yl)-imidazol-1-ylmethyl]-8-propyl-[1,2,4]triazolo[1,5-c]pyrimidine-2-carboxylic acidamide], the Ki is below 1000 nM. The same measure, in the same setting: for `CCCc1c(Cn2ccnc2-c2ncccc2F)ncn2nc(OC)nc12` [Compound 246, 7-{[2-(3-fluoropyridin-2-yl)-1H-imidazol-1-yl]methyl}-2-methoxy-8-propyl[1,2,4]triazolo[1,5-c]pyrimidine] the value was below 1000 nM. The same measure, in the same setting: for `CCCc1c(Cn2ccnc2-c2ncccc2F)ncn2nc(CC(F)(F)F)nc12` [Compound 257, 7-{[2-(3-fluoropyridin-2-yl)-1H-imidazol-1-yl]methyl}-8-propyl-2-(2,2,2-trifluoroethyl)[1,2,4]triazolo[1,5-c]pyrimidine] the value was below 1000 nM.

For `CCCc1c(Cn2ccnc2-c2cccc(C#N)n2)ncn2nc(C)nc12` [Compound 262, 6-{1-[(2-methyl-8-propyl[1,2,4]triazolo[1,5-c]pyrimidin-7-yl]methyl]-1H-imidazol-2-yl}pyridine-2-carbonitrile], the Ki was below 1000 nM. The compound `CCCc1c(Cn2ccnc2-c2ncccc2F)ncn2nc(C#N)nc12` [Compound 240, 7-[2-(3-Fluoro-pyridin-2-yl)-imidazol-1-ylmethyl]-8-propyl-[1,2,4]triazolo[1,5-c]pyrimidine-2-carbonitrile] registered a Ki below 1000 nM.

The compound `CCCc1c(Cn2ccnc2-c2ncccc2F)ncn2nc(COC3CCCC3)nc12` [Compound 265, 2-[(cyclopentyloxy)methyl]-7-{[2-(3-fluoropyridin-2-yl)-1H-imidazol-1-yl]methyl}-8-propyl[1,2,4]triazolo[1,5-c]pyrimidine] gave a Ki below 1000 nM.

Still in this test, the particulars now being: radioligand; previously determined, used in Cheng-Prusoff equation; read-out: Kd, binding dissociation constant of 3H-Ro15-1788.
In the case of `CCOC(=O)c1ncn2c1CN(C)C(=O)c1cc(F)ccc1-2` [^3H-Ro15-1788, reference compound], the Kd was 1 nM.
